This note sets out measurements from patent publication US5190873A, “Hybrid tryptophan aporepressor containing ligand binding sites” (California Institute of Biological Research, priority 1991, dated 1993).

Where no end group is shown, it is not given here.

The subject of the assay is U251MG human glioma cell attachment to TrpR-TN5 (E. coli Trp aporepressor hybrid with SRRGDMS at D/E transition). Put plainly: Cell attachment assay on TrpR-TN5-coated wells, peptide competition. In kind it is cell-based. Particulars: peptide at 1 mg/ml; U251 cells. Here is the method:
Recombinant proteins were assessed for cell binding activity in a microtiter plate cell attachment assay. The assay is a simple and rapid means of assessing cell binding to the recombinant protein. In addition the specificity of the interaction is explored with specific inhibitor peptides, recombinant proteins and matrix proteins. Finally, the assay is used to screen a variety of cell lines to determine the range of cell types capable of interacting with the recombinant protein.
The assay used was a modification of one widely used in the field. See Bourdon et al., J. Cell Biol., 108:1149-1155 (1989). […] Nonspecific sites on the well were blocked with BSA. Human tumor cells, U251MG-human glioma or MG63-human sarcoma having the receptor which binds the SRRGDMS receptor binding site with or without inhibitor were added and allowed to adhere for 30 to 90 minutes at 37° C. Following the maintenance period, non-adherent cells were washed out and relative numbers of adherent cells were determined. The assay can detect binding interactions in the absence of extensive cell spreading.
In the cell attachment assay, the attached cells stained with Di-I a vital fluorescent dye which intercalates in cell membranes. The advantages of this form of cell tagging are that cells can be rapidly labeled, the label remains cell bound, it is not radioactive, and it is easily detected in a fluorescence plate reader.
Specificity of cell attachment was then determined in competition assays of cell attachment using SRRGDMS or GRGDSP peptides as competitive inhibitors of recombinant protein cell attachment. In the presence of 1 mg/ml SRRGDMS peptide, the specific attachment of U251MG cells to either fusion protein was inhibited as shown in FIG. 3.
Turning to GRGDSP (GRGDSP-NH2), the “inhibition of cell attachment to TrpR-TN5” value was “inhibited”.

On to MGSRSRD, for which the “inhibition of cell attachment to TrpR-TN5” value was “did not inhibit”. Next, SRRGDMS (SRRGDMS-NH2): “inhibited”.
